In article PMC8363620, “The ERAP1 active site cannot productively access the N-terminus of antigenic peptide precursors stably bound onto MHC class I” (Scientific Reports, 2021):
Where a SMILES comes first, the peptide text is derived from it. The star is where a group is joined. X1 = CC(C)CC(CP(=O)(O)[C@@H](N)CCc1ccccc1)C(=O)*

Experiments:
[1] = target: T1, ERAP1 (Homo sapiens, UniProt Q9NZ08); assay: Fluorigenic enzymatic assay: inhibition of ERAP1 hydrolysis of Leu-AMC; assay type: biochemical
T1 construct: inferred from the nickel-NTA purification; made in house; host or cells: Hi5 insect cells, recombinant baculovirus
Procedure: Expression and purification of ERAP1 was performed as described previously. Briefly, ERAP1 was expressed in Hi5 insect cells after infection with recombinant baculovirus at 27 °C. Protein was isolated by affinity chromatography using nickel-nitrilotriacetic acid–agarose beads. Protein aliquots were kept at − 80 °C in Hepes/NaCl buffer pH 7.0 supplemented with 10% (v/v) glycerol, until needed.
ERAP1 enzymatic activity and inhibitor IC50 values were calculated as previously reported. Briefly, hydrolysis of the fluorescent substrate leucine-aminomethylcoumarin (Leu-AMC, Sigma–Aldrich, L2145) was followed at 460 nm (excitation at 380 nm) using a Spark 10 M (TECAN) multimode microplate reader. The IC50 of DG080 was calculated by using the equation log (inhibitor) versus response-variable slope of GraphPad Prism 8.0™.

[2] = target: T1, ERAP1; assay: ERAP1 trimming of MHCI-bound peptide followed by native-PAGE; assay type: biochemical
[3] = target: HLA-B*08:01 (Homo sapiens, UniProt P01889, A93T/A95T/D138N/E176V/E187T/K202T/Q94N/R180D/S35A/V36M/Y33D/Y91F); settings: cited from earlier work
[4] = target: T1, ERAP1; settings: cited from earlier work
[5] = tested on: HLA-B*08; settings: non-covalently linked peptide, with AI9; cited from earlier work
[6] = target: T1, ERAP1; settings: cited from earlier work; remark: listed apart in the source
[7] = tested on: HLA-B*08; assay: Kinetic stability of complex by competition with SYPRO Orange (peptide dissociation); assay type: binding; settings: 37 °C, 8 μM complex, 50X SYPRO Orange dye (4 μL in 20 μL), excitation 533 nm, emission 572 nm, non-covalent complex, each data point average of two repetitions
Procedure: (§1) The assay was performed in the Lightcycler 96 RT-PCR instrument as previously reported. Reaction mixtures (total volume 20 μL) consisted of 16 μL protein complex (final concentration 8 μΜ) and 4 μL of 50X SYPRO Orange dye (Sigma–Aldrich, S5692). Excitation wavelength was set at 533 nm and emission at 572 nm. The temperature was set at 37 °C for the duration of the experiment.

[8] = target: HLA-B*08:01(E76C) (Homo sapiens, UniProt P01889, A93T/A95T/D138N/E176V/E187T/K202T/Q94N/R180D/S35A/V36M/Y33D/Y91F); assay: Thermal shift assay (DSF), melting temperature of HLA-B*08(E76C)/peptide complex; assay type: physicochemical; settings: purified complex, Fig. 1F three repetitions shown
Procedure: The assay as well as the calculation of the melting temperature (Tm) of the complexes HLA-B*08:01(E76C)-DG080 and HLA-B*08:01(E76C)-AI12Cys were performed as previously reported.

[9] = target: T2, HLA-B*08(E76C) (Homo sapiens, UniProt P01889, A93T/A95T/D138N/E100C/E176V/E187T/K202T/Q94N/R180D/S35A/V36M/Y33D/Y91F); assay: Kinetic stability of complex by competition with SYPRO Orange (peptide dissociation); assay type: binding; settings: 37 °C
T2 construct: made in house
Procedure: as §1

[10] = target: T2, HLA-B*08(E76C); assay: Peptide exchange with excess 9mer […] (AI9), native-PAGE; assay type: binding
Procedure: Separating gel was prepared by mixing 2.9 mL Tris–HCl 0.375 M pH 8.8 solution, 2 mL acrylamide solution 30%, 100 μL APS 10% w/v and 5 μL TEMED. Stacking gel was formed by mixing 2.14 mL Tris–HCl 0.375 M pH 8.8 solution, 0.34 mL acrylamide solution 30%, 50 μL APS 10% w/v and 5 μL TEMED. Sample loading buffer was formed by mixing 62.5 mM Tris–HCl pH 6.8 solution, 25% v/v glycerol and 1% v/v bromophenol blue solution. Running buffer consists of 25 mM Tris-base and 192 mM glycine. Electrophoresis is conducted at 4 °C, 100 V for 5 h. 1,5 µg of MHC I-peptide complexes and 3 µg of ERAP1 were used.

[11] = target: T1, ERAP1; assay: ERAP1 trimming of MHCI-bound peptide followed by MALDI-TOF-MS; assay type: biochemical; settings: 20 nM or 100 nM ERAP1; stopped with TFA; 100 mM DTT added to free peptide
Procedure: To confirm the above finding we followed the trimming reaction by MALDI-TOF–MS which allows the concurrent detection of several peptide species. HLA-B*08(E76C)- […] was incubated with either 20 nM or 100 nM of ERAP1 and the reaction was stopped by the addition of TFA and flash-frozen. MALDI-TOF–MS analysis was performed as described before, but with the addition of 100 mM DTT to reduce the disulfide linkage to the complex so that the freed peptide can be detected (Fig. 2D).
Detection of peptides bound onto ΗLA-B*08:01 by MALDI-TOF–MS was performed as previously described[17] with the exception that 100 mM DTT was added to 10 μL samples of ΗLA-B*08:01(E76C) protein complexes to break the disulfide bond and allow detection of the peptide.

[12] = target: T1, ERAP1; assay: ERAP1 ternary complex formation, native-PAGE band shift; assay type: binding; settings: equimolar mixture of ERAP1 and complex
Description: The phosphinic head of the DG080 pseudopeptide should provide it with high affinity for the active site of ERAP1. To validate this assumption, we mixed free DG080 with ERAP1 and followed ERAP1 activity using the small fluorigenic substrate L-Leucine-7-amido-4-methylcoumarin (Leu-AMC)[24]. […] Due to the low amounts of complex available, we performed assays at a fixed concentration of 1 μΜ for both free DG080 and HLA-B*08(E76C)-DG080 complex. At that concentration, free DG080 was able to inhibit almost 90% of ERAP1 activity, consistent with its measured IC50. […] We conclude that although DG080 in solution has full access to the ERAP1 active site, DG080 covalently bound onto HLA-B*08 has very limited access to the active site of ERAP1, possibly due to steric hindrances that limit a proper binding orientation necessary so that the ERAP1 active site can approach the MHCI binding groove. To validate the stability of the HLA-B*08(E76C)-DG080 versus ERAP1 trimming or peptide exchange, we first incubated the complex with 20 nM ERAP1 at 37 °C for 1 h and analyzed the sample by native-PAGE (Fig. 4C). […] To further explore a potential interaction between ERAP1 and the phosphinic N-terminus of the peptide bound onto HLA-B*08, we analyzed an equimolar mixture of ERAP1 with HLA-B*08(E76C)-DG080 by native PAGE (Fig. 4D). […]

[13] = target: Endoplasmic Reticulum Aminopeptidase 1 (ERAP1) (UniProt Q9NZ08)
[14] = 20 nM ERAP1, up to 2 h (0–120 min)

## CC(C)CC(CP(=O)(O)[C@@H](N)CCc1ccccc1)C(=O)NCC(=O)N[C@@H](CO)C(=O)NCC(=O)N[C@@H](CO)C(=O)NCC(=O)N[C@@H](CO)C(=O)N[C@@H](C)C(=O)N[C@@H](C)C(=O)N[C@@H](CCCCN)C(=O)N[C@@H](CCCCN)C(=O)N[C@@H](CCCCN)C(=O)N[C@@H](Cc1ccc(O)cc1)C(=O)N[C@@H](CS)C(=O)N[C@@H](CC(C)C)C(=O)O (stereo partly shown) [DG080] (X1-GSGSGSAAKKKYCL-OH)
[1]; free peptide, 1 μM, Leu-AMC hydrolysis, two measurements
  inhibition at 1 µM: ~90%
[1]; free peptide, substrate Leu-AMC, excitation 380 nm, emission 460 nm, log(inhibitor) vs response-variable slope, each point average of two measurements
  IC50: 350 ± 89 nM

## ARAALRSRYWAI [listing 1 of 2 here]
[2]; [14]
  ERAP1 trimming: change in electrophoretic mobility (native-PAGE): ERAP1 was able to modify the electrophoretic mobility
[3]
  stability of complex with HLA-B*08:01: thermodynamically stable but kinetically labile complex
[4]
  ERAP1 trimming half-life, MHCI-bound peptide (MALDI-TOF-MS): 20 to 30 min
[5]
  peptide exchange (native-PAGE): similarly to the non-covalently linked AI12 peptide
[6]
  ERAP1 trimming half-life, MHCI-bound peptide (native-PAGE): 18 min
[6]; non-covalent complex, compared with solution
  ERAP1 trimming while bound onto HLA-B*08:01: ERAP1 can apparently trim this peptide while it is bound onto HLA-B*08:01, albeit slower than in solution

## ARAALRSRYWAI [listing 2 of 2 here]
[7]
  half-life of complex (t1/2): 7 ± 1 min

## ARAALRSRYWCI [disulfide-linked HLA-B*08/peptide complex]
[2]; [14]
  ERAP1 trimming: change in electrophoretic mobility (native-PAGE): no change in electrophoretic mobility was observed
[8]
  melting temperature (Tm): 44.0 ± 0.5 °C
[9]; SYPRO Orange competition, 8 μM complex, 50X SYPRO Orange dye (4 μL in 20 μL), excitation 533 nm, emission 572 nm, each data point average of three repetitions
  half-life of complex (t1/2): 450 ± 38 min
[9]; vs non-covalent HLA-B*08-ARAALRSRYWAI complex
  slowing of dye access to MHC binding groove by covalently linking the peptide: almost 2 orders of magnitude
[10]; 100 μM ALRSRYWAI + DTT (100 μM in Fig. 2B legend), incubation at RT
  peptide exchange (native-PAGE) in presence of DTT: full exchange of the ARAALRSRYWCI with ALRSRYWAI
[10]; excess ALRSRYWAI (100 μM), 60 min at RT, no DTT
  peptide exchange (electrophoretic mobility in native-PAGE): did not alter the electrophoretic mobility of the complex in native-PAGE suggesting no peptide exchange
[11]
  time-dependent decrease of 12mer peptide on incubation with ERAP1 (MALDI-TOF-MS): no time-dependent decrease of the 12mer peptide

## hFΨ[P(O)(OH)CH2]LGSGSGSAAKKKYCL [HLA-B*08(E76C)-DG080, disulfide-linked HLA-B*08/ phosphinic peptide complex]
[2]; 20 nM ERAP1, 37 °C, 1 h
  ERAP1 trimming: change in electrophoretic mobility (native-PAGE): No change in electrophoretic mobility was observed
[1]; complex, 1 μM, Leu-AMC hydrolysis, two measurements
  effect on ERAP1 enzymatic activity: unable to fully inactivate ERAP1, and had only a marginal effect on its enzymatic activity
[10]; excess (100 μM) ALRSRYWAI, 37 °C, 1 h
  peptide exchange (electrophoretic mobility in native-PAGE): no change in electrophoretic mobility was evident
[12]
  band shift with ERAP1 (stable ternary complex formation): No band shifts were evident

## phosphinic pseudopeptide DG080, hFΨ[P(O)(OH)CH2]…
[13]
  inhibition of ERAP1 hydrolysis of Leu-AMC by titrated free DG080, IC50: 350 nM
  inhibition of ERAP1 hydrolysis of the fluorigenic substrate at a fixed 1 μΜ of free DG080: 90%
